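96-well plates; 48 h exposure; 5 concentrations. Endpoints by linear interpolation between flanking doses. Not reached: highest tested concentration assigned. Abbreviation: GI50, concentration required for 50% inhibition of growth. TGI: total growth inhibition.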

Common to all, as to assay: growth of human tumour cells (NCI), 48 h
Assay [1] concerns HOP-62 NSCLC.
Assay [2] relates to MCF7 breast.
In assay [3] the test system is A498 renal.
The test system of assay [4] is NCI-H460 lung.
Assay [5] has as its system MOLT-4 leukemia.
Assay [6] concerns RPMI-8226 leukemia.
The subject of assay [7] is U251 CNS.
Assay [8] has as its system HT29 colon.
The subject of assay [9] is SF-539 CNS.
For assay [10], the system named is SN12C renal.

Turning to `CO/N=C1/c2cc(OC)ccc2-c2c(NOC)nc3ccccc3c21`, the GI50 in [1] is 24.6 µM; in [2], 27.1 µM; in [3], 16.1 µM; in assay [4] it was 29.5 µM; in assay [5], 47 µM; in assay [6], 40.6 µM. Also, the GI50 in [7] is 13 µM; in [8] it was 42 µM; in assay [9], 21.9 µM; in [10], 29.5 µM. Moreover, the TGI is 39.4 µM in [1]; over 100 µM in assay [2]; 36.9 µM in assay [3]; over 100 µM in [4]; over 100 µM in assay [5]; over 100 µM in [6]. Besides, the TGI in assay [7] was 25.7 µM; in assay [8] it was over 100 µM; in assay [9] it was 52.6 µM; in [10], over 100 µM.
On to `O=C1c2cccnc2-c2nc(-c3ccc([N+](=O)[O-])cc3)cc3c2c1nc1ccccc13`, for which the GI50 is 12.2 µM in [1]; 1.86 µM in [2]; 24.2 µM in assay [3]; 2.34 µM in assay [4]; 53.5 µM in assay [5]; 8.88 µM in assay [6]. Also, the GI50 was 3.44 µM in [7], 11.9 µM in assay [8], 3.05 µM in assay [9] and 11.3 µM in assay [10]. Also, the TGI in assay [1] is 28.3 µM; in assay [2], over 21.5 µM; in assay [3], 65.5 µM; in assay [4] it was 8.62 µM; in [5], over 100 µM; in assay [6], 71.5 µM. Further, the TGI in [7] was over 100 µM; in assay [8] it was 26.3 µM; in assay [9], 11.3 µM; in assay [10], 25.7 µM.
As to `COc1ccc(/C=C(/C(=O)N2CCNCC2)c2cc(OC)c(OC)c(OC)c2)cc1O`, the GI50 in [1] is 5.08 µM; in assay [2], 1.34 µM; in assay [3] it was 1.22 µM; in assay [4] it was 3.42 µM; in assay [5], 3.94 µM; in assay [6], 3.55 µM. For the same compound, the GI50 in [7] was 3.29 µM; in assay [8], 7.75 µM; in assay [9] it was 2.22 µM; in [10], 7.86 µM. Moreover, the TGI in assay [1] was over 100 µM; in [2], over 100 µM; in assay [3], 7.33 µM; in assay [4], over 100 µM; in [5], over 100 µM; in assay [6] it was over 100 µM. Moreover, the TGI in assay [7] was over 100 µM; in assay [8], over 100 µM; in assay [9], 6.51 µM; in assay [10] it was over 100 µM.
In the case of `COC(=O)c1c(-c2ccccc2)csc1NC(=O)c1c(-c2ccccc2)noc1C`, the GI50 was 4.56 µM in assay [1]; 0.6 µM in assay [2]; over 100 µM in [3]; 0.177 µM in assay [4]; 1.22 µM in [5]; 0.793 µM in assay [6]. For the same compound, the GI50 in [7] was 0.321 µM; in [8] it was 0.399 µM; in assay [9], 0.655 µM; in [10] it was 4.06 µM. The TGI in assay [1], in assay [2], in assay [3], in assay [4], in assay [5] and in [6] was over 100 µM in each case. The TGI in assay [7], in assay [8], in [9] and in assay [10] was over 100 µM in each case.
With `Cc1nc2cc(O)c(O)cc2cc1Oc1ccc(NC(=O)Nc2ccc(Cl)c(Cl)c2)cc1`, the GI50 in assay [1] was 8.62 µM; in assay [2], 8.71 µM; in [3], over 32.5 µM; in [4], 6.95 µM; in [5], 8.87 µM; in assay [6] it was 7.62 µM. Moreover, the GI50 is 6.58 µM in [7], 11.9 µM in assay [8], 8.86 µM in assay [9] and 8.97 µM in [10]. For the same compound, the TGI was over 32.5 µM in assay [1]; over 32.5 µM in assay [2]; over 32.5 µM in [3]; 15.8 µM in assay [4]; over 32.5 µM in [5]; 20.7 µM in assay [6]. Moreover, the TGI in assay [7] was over 32.5 µM; in assay [8], over 32.5 µM; in assay [9] it was 22.7 µM; in assay [10] it was 30.3 µM.
Regarding `O=C(O)/C(Cl)=C(/Cl)C(=O)Nc1cccc(Cl)c1`, the TGI was over 76.3 µM in [1]; 62.8 µM in [2]; over 100 µM in assay [3]; over 100 µM in assay [4]; 8.45 µM in assay [5]; 46.2 µM in [6]. Also, the TGI was 59.9 µM in [7], 42.3 µM in [8], over 70.3 µM in assay [9] and 36.9 µM in assay [10].
As to `O=C1NC(=NCc2ccccn2)S/C1=C\c1ccc2ncccc2c1`, the GI50 was 13.2 µM in assay [1]; 8.75 µM in assay [2]; 3.95 µM in assay [3]; 9.07 µM in assay [4]; 11.3 µM in assay [5]; over 12.6 µM in assay [6]. Also, the GI50 in assay [7] is 7.87 µM; in assay [8], 15 µM; in [9], 7.54 µM; in assay [10] it was 10.8 µM. The TGI is over 25 µM in assay [1]; over 25 µM in assay [2]; over 18.8 µM in assay [3]; over 25 µM in assay [4]; over 25 µM in assay [5]; over 25 µM in assay [6]. The TGI in assay [7], in assay [8], in [9] and in assay [10] was over 25 µM each time.
